Reference: patent publication US6479067B2, “Methods for treating ovarian cancer, poly (phosphoester) compositions, and biodegradable articles for same” (Guilford Pharmaceuticals, Inc., priority 1999, dated 2002)
Where a name gives a salt, the structure may show the parent alone. Read-outs that look alike come from different tables or passages of the source.

Experiments:
[1] = Subcutaneous injection: implant site macrophage counts and irritation scores; assay type: in vivo, male S-D rats; conditions: s.c.
[2] = test system: melanoma cell line B16/F10
[3] = for Paclitaxel Concentration (plasma): 120 mg/kg i.p.
[4] = 0.7 ml (polymers 89 mg/kg), 7 Day
[5] = 0.7 ml (polymers 89 mg/kg), 14 Day
[6] = 0.7 ml (polymers 89 mg/kg), 31 Day
[7] = 2.0 ml (polymers 267 mg/kg), 7 Day
[8] = 2.0 ml (polymers 267 mg/kg), 14 Day
[9] = 2.0 ml (polymers 267 mg/kg), 31 Day
[10] = 28 days, formulation injected on Day 3
[11] = 28 days, formulation injected on Day 7
[12] = 42 days, formulation injected on Day 3
[13] = 42 days, formulation injected on Day 7

CC(=O)O [Acetic Acid]
# = Mean count (implant site macrophages) [1, 4]: 208 | Irritation [1, 4]: Mild (200-400 Mild Irritation) | # = Mean count (implant site macrophages) [1, 5]: 166 | Irritation [1, 5]: Sl. (0-200 Slight Irritation) | # = Mean count (implant site macrophages) [1, 6]: 20 | Irritation [1, 6]: Sl. (0-200 Slight Irritation) | # = Mean count (implant site macrophages) [1, 7]: 267 | Irritation [1, 7]: Mild (200-400 Mild Irritation) | # = Mean count (implant site macrophages) [1, 8]: 334 | Irritation [1, 8]: Mild (200-400 Mild Irritation) | # = Mean count (implant site macrophages) [1, 9]: 32 | Irritation [1, 9]: Sl. (0-200 Slight Irritation)

COc1cccc2c1C(=O)c1c(O)c3c(c(O)c1C2=O)C[C@@](O)(C(=O)CO)C[C@@H]3O[C@H]1C[C@H](N)[C@H](O)[C@H](C)O1 [Bolus Dox, doxorubicin hydrochloride]
Number of Mice Survived [2, 10]: 8 | Tumor Volume (mm^3 ± SEM) After Tumor Injection [2, 10]: 1218.9 ± 304.1 mm^3 | Number of Mice Survived [2, 11]: 8 | Tumor Volume (mm^3 ± SEM) After Tumor Injection [2, 11]: 1661.2 ± 301.8 mm^3 | Number of Mice Survived [2, 12]: 5 | Tumor Volume (mm^3 ± SEM) After Tumor Injection [2, 12]: 3942.5 ± 1818 mm^3 | Number of Mice Survived [2, 13]: 3 | Tumor Volume (mm^3 ± SEM) After Tumor Injection [2, 13]: 4394.3 ± 741.3 mm^3 | Early death after injection ([2]; about 3-4 days after the injections): did not produce early death

CC(=O)O[C@H]1C(=O)[C@@]2(C)[C@H]([C@H](OC(=O)c3ccccc3)[C@]3(O)C[C@H](OC(=O)[C@H](O)[C@@H](NC(=O)c4ccccc4)c4ccccc4)C(C)=C1C3(C)C)[C@]1(OC(C)=O)CO[C@@H]1C[C@@H]2O [Paclitaxel w/o polymer, paclitaxel]
Paclitaxel Concentration (plasma) ([3]; 14 days): Animal died | Paclitaxel Concentration (plasma) ([3]; 28 days): Animal died | Tolerability ([3]; comparable dose given intraperitoneally): could not tolerate the dose
